The results in this text go back to patent publication US20220047552A1, “RAF-1 KINASE INHIBITOR COMPOUNDS FOR SKELETAL MUSCLE MODULATION, METHODS AND USES THEREOF” (SOCIETE DES PRODUITS NESTLE S.A., priority 2018, published 2022).

Test [1] has as its system human primary muscle stem cells. Description: Assay for muscle stem cell commitment (Pax7/MyoD immunofluorescence high content screening). Format: cell-based. The conditions noted are these: human primary myoblasts, 96 hours. From the text:
The inventors developed a high content screening to test in vitro compounds on human primary adult muscle cells. Human Skeletal Muscle Myoblasts (HSMM) were purchased from Lonza (https://bioscience.lonza.com). These cells were isolated from the upper arm or leg muscle tissue of normal donors and used after the second passage. Several donors have been tested to ensure cell viability and purity before selecting the final donor which was a person. The primary screening assay was based on the high content detection of two important myogenic regulatory factors (Pax7 and MyoD) by immunofluorescence. Pax7 and MyoD are the major hallmarks of muscle stem cell stemness and commitment and can be used to monitor muscle stem cell progeny. In particular, Pax7 marks early amplification while MyoD is a later marker for myogenic commitment, and combinations of these markers define the different states of proliferation, differentiation and self-renewal. […] Human primary myoblasts were seeded in 384 well plates at a density of 1'000 cells per well in skeletal muscle growth medium (SKM-M, AMSbio). For treatment, compounds were directly added to the myoblast cultures 16 hours after initial plating. All cultures were then grown for 96 hours. […] Custom module analysis based on Multi-Wavelength Cell Scoring of the MetaXpress software was used for quantification.

Test [2] deals with human primary muscle cells. As to the kind of experiment: Assay for myogenesis (troponin-T myotube detection). It is filed as cell-based. To be noted: human primary myoblasts, differentiation medium, 96 hours, dose dependent response. From the text:
In order to confirm the results from the primary assay described above, a secondary assay for myogenesis in vitro on all the hits obtained in this primary screening assay. This secondary assay focused on the later stage of myogenesis when the muscle cells fuse together and form multinucleated myotubes. This assay was based on the detection of the mature troponin-T protein that is expressed in myotubes. In particular, two measurements were made: Fusion factor, which is the % of nuclei that are inside the multinucleated myotubes compare to total nuclei and give a readout for muscle cell differentiation. Myotube area, which is measured based on the Troponin T staining and give a readout on the myotube size and muscle fiber growth. Human primary myoblasts were seeded in 384 well plates at a density of 3'000 cells per well in skeletal muscle growth medium (SKM-M, AMSbio). After one day, the differentiation is induced by a medium change. For treatment, compounds were directly added to the myoblast cultures for 96 hours. Myotubes were stained for TroponinT expression using antibodies directed against TroponinT and counterstained with Hoechst 33342 to visualize cell nuclei. Image acquisition was performed using the ImageXpress (Molecular Devices) platform. Custom module analysis based on Multi-Wavelength Cell Scoring of the MetaXpress software was used for quantification.

Take `O=C1Nc2ccc(I)cc2C1=Cc1cc(Br)c(O)c(Br)c1` [GW5074, 3-(3,5-Dibromo-4-hydroxy-benzylidene)-5-iodo-1,3-dihydro-indol-2-one]: the “proportion of MyoD+ cells as percent of total cell number (myogenic commitment)” value in test [1] (FIG. 1A, dose-dependent response, MyoD+ = Pax7-/MyoD+) is reported as “increase in the proportion of MyoD+ cells”. Moreover, the “number of Pax7+ cells (expansion of muscle stem cells)” value in test [1] (FIG. 1B, dose dependent response, Pax7+ regardless of MyoD expression) was “increase in Pax7+ cells”. Besides, the “myogenic differentiation (Fusion Factor, percent nuclei within troponinT-positive myotubes)” value in test [2] (FIG. 2A) is reported as “enhanced myogenic differentiation”. Also, the “myofiber growth (area covered by troponinT-positive myotubes)” value in test [2] (FIG. 2B) is “enhanced”.
